The values that follow come from patent US6608086B2, “Dihydropyridines and new uses thereof” (Synaptic Pharmaceutical Corporation, priority 1993, dated 2003).

Series [1] deals with T1, α1A Human Adrenergic Receptor (Homo sapiens, UniProt P25100).
T1 construct: The entire coding region of α1A (1719 bp); expressed in transfected cells
T1 sequence (P25100 1-572): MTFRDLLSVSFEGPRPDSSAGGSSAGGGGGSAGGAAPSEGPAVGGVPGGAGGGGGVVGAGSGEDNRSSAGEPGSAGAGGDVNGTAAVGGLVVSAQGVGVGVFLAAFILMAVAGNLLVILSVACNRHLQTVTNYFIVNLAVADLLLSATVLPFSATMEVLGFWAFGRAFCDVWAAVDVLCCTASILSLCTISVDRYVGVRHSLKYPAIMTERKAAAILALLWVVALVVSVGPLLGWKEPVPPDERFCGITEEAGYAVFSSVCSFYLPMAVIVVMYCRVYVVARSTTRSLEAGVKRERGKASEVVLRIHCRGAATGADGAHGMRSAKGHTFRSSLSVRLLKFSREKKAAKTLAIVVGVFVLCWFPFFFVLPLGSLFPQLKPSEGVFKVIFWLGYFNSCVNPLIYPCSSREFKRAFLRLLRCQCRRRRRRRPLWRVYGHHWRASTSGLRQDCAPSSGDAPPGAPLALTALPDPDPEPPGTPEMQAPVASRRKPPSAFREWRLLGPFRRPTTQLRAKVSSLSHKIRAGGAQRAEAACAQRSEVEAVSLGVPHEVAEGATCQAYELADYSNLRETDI
Put plainly: Radioligand binding, [3H]prazosin, cloned human α1A adrenergic receptor. The method in brief: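 In pH 7.5 Tris/MgCl2/ascorbic acid buffer, α1A-expressing LM(tk−) membranes are exposed to 0.5 nM [3H]prazosin (37° C, 20 min). Excess phentolamine (10 μM) marks nonspecific binding before rapid filtration.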

Series [2] deals with T2, α1B Human Adrenergic Receptor (Homo sapiens, UniProt P35368).
T2 construct: The entire coding region of α1B (1563 bp); expressed in transfected cells
T2 sequence (P35368 1-520): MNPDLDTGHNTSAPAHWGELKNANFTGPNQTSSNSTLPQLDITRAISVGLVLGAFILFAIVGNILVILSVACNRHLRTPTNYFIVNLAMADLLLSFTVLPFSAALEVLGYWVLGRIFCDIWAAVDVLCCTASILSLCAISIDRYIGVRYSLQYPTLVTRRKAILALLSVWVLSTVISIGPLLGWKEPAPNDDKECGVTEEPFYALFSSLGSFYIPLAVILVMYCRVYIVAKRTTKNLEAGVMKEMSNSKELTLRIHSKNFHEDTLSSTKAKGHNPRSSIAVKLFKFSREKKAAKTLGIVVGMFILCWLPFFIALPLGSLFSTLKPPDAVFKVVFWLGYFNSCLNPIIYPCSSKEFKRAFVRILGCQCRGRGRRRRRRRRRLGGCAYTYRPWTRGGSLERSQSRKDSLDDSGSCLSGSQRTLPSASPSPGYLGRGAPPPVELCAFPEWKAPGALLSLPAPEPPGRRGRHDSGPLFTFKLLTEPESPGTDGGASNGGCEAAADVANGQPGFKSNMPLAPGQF
In words: Radioligand binding, [3H]prazosin, cloned human α1B adrenergic receptor. In outline: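 [3H]prazosin (0.5 nM) binding was run for 20 min at 37° C in pH 7.5 Tris/MgCl2/ascorbate buffer on membranes of LM(tk−) cells stably expressing the cloned receptor. Filtration through GF/B ended the reaction; 10 μM phentolamine gave nonspecific binding.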

For series [3], the target named is T3, α1C Human Adrenergic Receptor (Homo sapiens, UniProt P35348).
T3 construct: The entire coding region of α1C (1401 bp); expressed in transfected cells
T3 sequence (P35348 1-466): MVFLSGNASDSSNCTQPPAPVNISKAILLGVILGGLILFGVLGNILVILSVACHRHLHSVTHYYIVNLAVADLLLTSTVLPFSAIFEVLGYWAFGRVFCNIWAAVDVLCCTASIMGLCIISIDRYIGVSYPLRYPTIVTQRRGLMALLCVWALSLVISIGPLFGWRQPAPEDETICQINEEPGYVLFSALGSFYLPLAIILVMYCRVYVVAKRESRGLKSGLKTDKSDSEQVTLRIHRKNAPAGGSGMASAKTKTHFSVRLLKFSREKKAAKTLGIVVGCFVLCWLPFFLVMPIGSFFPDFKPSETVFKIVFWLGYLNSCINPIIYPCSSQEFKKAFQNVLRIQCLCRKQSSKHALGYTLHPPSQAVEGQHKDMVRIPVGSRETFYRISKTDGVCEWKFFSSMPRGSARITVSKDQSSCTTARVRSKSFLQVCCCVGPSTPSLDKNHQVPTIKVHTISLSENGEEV
In words: Radioligand binding, [3H]prazosin, cloned human α1C adrenergic receptor. In outline: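 Read-out is filter-retained [3H]prazosin (0.5 nM) bound to membranes of LM(tk−) cells stably carrying the human α1C receptor. Incubation ran 20 min at 37° C. at pH 7.5, with 10 μM phentolamine marking nonspecific binding.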

Another series concerns the target T4, L-type calcium channel (Rattus norvegicus, UniProt P22002).
T4 construct: membrane fragments of rat cardiac muscle; from tissue; host or cells: rat cardiac muscle membranes
Put plainly: Competition binding of [3H]nitrendipine to membrane fragments of rat cardiac muscle. As for the experimental part: The protocols for these experiments are given below.
Determination of the Activity of al Antagonists at Calcium Channels
Briefly, the tissue was minced and homogenized in 50 mM Tris-HCl (pH 7.4) containing 0.1 mM phenylmethylsulfonyl fluoride. The homogenates were centrifuged at 1000 g for 15 minutes, the resulting supernatant was centrifuged at 45,000 g for 15 minutes. The 45,000 g pellet was suspended in buffer and centrifuged a second time. Aliquots of membrane protein were incubated for 30 minutes at 37° C. in the presence of [3H]nitrendipine (1 nM), and nonspecific binding was determined in the presence of 10 μM nifedipine. The bound radioligand was separated by filtration through GF/B filters using a cell harvester.

Where [4] appears, read: [3H]prazosin, cloned human receptor in LM(tk-) cell membranes, SEM and n in lines below, read-out: pKi alpha-1 1a (converted).
[5] abbreviates: cloned human receptor in LM(tk-) cell membranes, SEM and n in lines below, read-out: pKi alpha-1 1b (converted).
Where [6] appears, read: cloned human receptor in LM(tk-) cell membranes, SEM and n in lines below, read-out: pKi alpha-1 1c (converted).
Setting [7] is: [3H]nitrendipine, rat cardiac muscle membranes, SEM and n in lines below, read-out: pKi Ca (converted).
The mark [8] stands for this setting: pKi alpha-1 1a, [3H]prazosin, cloned human α1A receptor, LM(tk−) cell membranes.
The mark [9] stands for this setting: pKi alpha-1 1b, cloned human α1B receptor, LM(tk−) cell membranes.
[10] abbreviates: pKi alpha-1 1c, cloned human α1C receptor, LM(tk−) cell membranes.
Setting [11] is: [3H]nitrendipine, rat cardiac muscle membrane fragments, L-type calcium channel, read-out: pKi Ca (converted).
The mark [12] stands for this setting: [3H]prazosin, cloned human receptor, LM(tk-) cell membranes, mean, read-out: PKi alpha-1 1a (converted).
Where [13] appears, read: cloned human receptor, LM(tk-) cell membranes, mean, read-out: PKi alpha-1 1b (converted).
The mark [14] stands for this setting: cloned human receptor, LM(tk-) cell membranes, mean, read-out: PKi alpha-1 1c (converted).
Setting [15] is: [3H]nitrendipine, rat cardiac muscle membranes, mean, read-out: PKi Ca (converted).

Like-named read-outs stand apart in the source and are kept apart here.

T4 sequence (P22002 whole entry, other chains not shown, the tested form may be a part): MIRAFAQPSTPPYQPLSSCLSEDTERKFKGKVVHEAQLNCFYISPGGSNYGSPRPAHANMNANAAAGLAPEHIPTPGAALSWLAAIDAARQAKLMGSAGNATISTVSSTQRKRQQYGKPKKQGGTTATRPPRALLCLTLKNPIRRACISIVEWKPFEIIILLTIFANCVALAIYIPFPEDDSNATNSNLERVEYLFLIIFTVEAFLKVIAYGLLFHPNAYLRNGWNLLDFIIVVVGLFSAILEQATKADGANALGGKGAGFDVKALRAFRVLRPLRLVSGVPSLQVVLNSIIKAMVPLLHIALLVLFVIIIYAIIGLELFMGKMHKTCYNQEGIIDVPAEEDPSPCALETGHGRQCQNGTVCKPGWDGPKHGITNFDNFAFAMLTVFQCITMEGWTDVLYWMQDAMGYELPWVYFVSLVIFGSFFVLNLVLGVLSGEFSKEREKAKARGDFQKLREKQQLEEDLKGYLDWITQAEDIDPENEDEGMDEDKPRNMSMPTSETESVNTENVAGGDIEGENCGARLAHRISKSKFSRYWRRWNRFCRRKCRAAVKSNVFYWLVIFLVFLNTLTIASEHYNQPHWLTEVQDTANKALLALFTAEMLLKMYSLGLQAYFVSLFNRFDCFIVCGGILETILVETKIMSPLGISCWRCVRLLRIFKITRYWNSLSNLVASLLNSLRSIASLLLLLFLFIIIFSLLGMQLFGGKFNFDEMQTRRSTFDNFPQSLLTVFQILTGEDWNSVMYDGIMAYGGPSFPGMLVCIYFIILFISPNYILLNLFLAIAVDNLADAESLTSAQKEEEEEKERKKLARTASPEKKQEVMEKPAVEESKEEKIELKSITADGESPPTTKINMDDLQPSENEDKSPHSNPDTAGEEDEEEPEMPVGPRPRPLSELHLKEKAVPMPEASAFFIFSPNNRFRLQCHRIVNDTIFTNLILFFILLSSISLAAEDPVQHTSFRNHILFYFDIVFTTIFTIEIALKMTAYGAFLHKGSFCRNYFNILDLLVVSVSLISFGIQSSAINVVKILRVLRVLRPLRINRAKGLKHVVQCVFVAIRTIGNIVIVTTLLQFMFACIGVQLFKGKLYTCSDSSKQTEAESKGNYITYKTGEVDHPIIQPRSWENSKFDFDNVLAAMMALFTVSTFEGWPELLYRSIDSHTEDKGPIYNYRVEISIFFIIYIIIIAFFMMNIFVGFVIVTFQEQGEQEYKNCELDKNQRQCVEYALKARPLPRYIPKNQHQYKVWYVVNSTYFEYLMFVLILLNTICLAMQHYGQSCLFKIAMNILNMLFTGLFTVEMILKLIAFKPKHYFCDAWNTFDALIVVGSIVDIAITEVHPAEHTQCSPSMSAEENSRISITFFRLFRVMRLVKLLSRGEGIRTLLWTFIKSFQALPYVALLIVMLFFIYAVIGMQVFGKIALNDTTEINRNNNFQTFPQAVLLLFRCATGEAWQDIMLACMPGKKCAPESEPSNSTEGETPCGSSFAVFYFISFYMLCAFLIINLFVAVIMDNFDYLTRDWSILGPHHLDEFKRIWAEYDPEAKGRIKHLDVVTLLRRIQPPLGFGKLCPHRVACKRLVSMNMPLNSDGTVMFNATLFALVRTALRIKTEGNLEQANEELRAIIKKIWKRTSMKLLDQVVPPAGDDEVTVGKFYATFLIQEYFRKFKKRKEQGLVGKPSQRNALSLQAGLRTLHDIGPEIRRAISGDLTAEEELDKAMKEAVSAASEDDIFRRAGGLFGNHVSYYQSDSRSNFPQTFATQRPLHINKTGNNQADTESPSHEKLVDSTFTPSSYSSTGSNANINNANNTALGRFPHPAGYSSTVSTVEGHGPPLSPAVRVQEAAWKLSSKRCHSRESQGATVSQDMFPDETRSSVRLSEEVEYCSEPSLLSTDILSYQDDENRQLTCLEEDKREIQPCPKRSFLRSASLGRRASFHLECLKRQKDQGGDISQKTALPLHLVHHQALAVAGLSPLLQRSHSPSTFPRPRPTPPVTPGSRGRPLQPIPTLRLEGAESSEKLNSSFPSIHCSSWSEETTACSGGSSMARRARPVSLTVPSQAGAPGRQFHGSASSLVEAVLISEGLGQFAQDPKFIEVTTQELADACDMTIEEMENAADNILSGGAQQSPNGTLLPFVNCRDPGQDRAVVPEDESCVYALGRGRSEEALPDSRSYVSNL
T4 sequence (P54290 25-944 partner limits assumed, other chains not shown): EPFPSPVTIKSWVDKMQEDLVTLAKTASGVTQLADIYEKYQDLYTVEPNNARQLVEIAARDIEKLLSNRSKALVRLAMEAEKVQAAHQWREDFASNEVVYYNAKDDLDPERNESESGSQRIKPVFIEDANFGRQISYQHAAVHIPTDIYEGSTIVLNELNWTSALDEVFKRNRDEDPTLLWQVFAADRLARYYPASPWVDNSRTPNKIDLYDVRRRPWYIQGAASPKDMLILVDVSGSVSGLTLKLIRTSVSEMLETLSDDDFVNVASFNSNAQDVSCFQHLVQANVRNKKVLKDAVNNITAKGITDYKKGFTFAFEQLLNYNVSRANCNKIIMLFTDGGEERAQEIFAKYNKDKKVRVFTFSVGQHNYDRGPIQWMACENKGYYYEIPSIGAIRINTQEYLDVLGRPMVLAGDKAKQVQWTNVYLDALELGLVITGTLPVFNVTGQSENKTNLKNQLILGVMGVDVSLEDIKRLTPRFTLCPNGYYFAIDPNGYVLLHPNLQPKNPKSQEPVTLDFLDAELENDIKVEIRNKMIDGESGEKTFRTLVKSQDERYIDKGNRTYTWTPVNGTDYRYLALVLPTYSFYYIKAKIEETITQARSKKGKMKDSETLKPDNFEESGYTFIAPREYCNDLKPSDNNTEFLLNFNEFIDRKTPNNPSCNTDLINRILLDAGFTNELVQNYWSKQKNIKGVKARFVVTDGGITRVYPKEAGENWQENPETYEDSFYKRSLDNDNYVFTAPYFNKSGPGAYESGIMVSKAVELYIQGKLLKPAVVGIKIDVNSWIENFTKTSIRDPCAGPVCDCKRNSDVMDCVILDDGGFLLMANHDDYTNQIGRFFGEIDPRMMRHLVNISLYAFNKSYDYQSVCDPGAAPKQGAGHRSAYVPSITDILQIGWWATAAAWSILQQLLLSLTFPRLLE
T4 sequence (P54290 945-1091 partner limits assumed, other chains not shown): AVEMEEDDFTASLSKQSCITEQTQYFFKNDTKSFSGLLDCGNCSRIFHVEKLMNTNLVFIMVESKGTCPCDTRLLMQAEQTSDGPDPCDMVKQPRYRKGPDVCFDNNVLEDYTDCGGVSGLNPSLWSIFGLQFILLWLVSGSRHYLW

Compound `COC(=O)C1=C(C)NC(C)=C(C(=O)NCCCN2CCC(c3ccccc3)CC2)C1c1ccncc1` (stereo not shown) [Example 32, 1,4-Dihydro-3-methoxycarbonyl-2,6-dimethyl-5-(N-(3-(4-phenylpiperidin-1-yl)propyl)carboxamido)-4-(4-pyridyl)pyridine] returned a melting point of 79 to 80 °C. The Ki in series [1] (setting [4]) is 741 nM. Also, the Ki in series [2] (setting [5]) is 302 nM. In series [3] (setting [6]), the Ki was 13.2 nM. For the same compound, the Ki on L-type calcium channel (setting [7]) is 1580 nM.

In the case of `COC(=O)C1=C(C)NC(C)=C(C(=O)OCCCN(C)C)C1c1ccc([N+](=O)[O-])cc1.Cl` (stereo not shown) [Example 44, 1,4-Dihydro-5-methoxycarbonyl-2,6-dimethyl-3-{3-[(N,N-dimethyl)amino]propoxy}carbonyl-4-(4-nitrophenyl) pyridine hydrochloride], the melting point fell in the range of 120 to 121 °C. Besides, in series [1] (setting [4]), the Ki is 5890 nM. Further, in series [2] (setting [5]), the Ki is 8320 nM. For the same compound, the Ki in series [3] (setting [6]) is 1700 nM. For the same compound, on L-type calcium channel (setting [7]), the Ki is 16600 nM.

In turn, `CCNC(=O)C1=C(CC)NC(CC)=C(C(=O)NCCCN2CCC(c3ccccc3)(c3ccccc3)CC2)C1c1ccc([N+](=O)[O-])cc1` (stereo not shown) [Example 129, 2,6-Diethyl-5-(N-ethyl)carboxamido-1,4-dihydro-4-(4-nitrophenyl)-3-{N-[3-(4,4-diphenylpiperidin-1-yl)propyl]}carboxamidopyridine] gave a melting point of 101 to 104 °C. In addition, in series [1] (setting [8]), the Ki is 676 nM. This compound also showed a Ki in series [2] (setting [9]) of 513 nM. For the same compound, the Ki in series [3] (setting [10]) is 3.72 nM. Further, the Ki at L-type calcium channel (setting [11]) was 100000 nM.

As to `CCNC(=O)C1=C(C)NC(C)=C(C(=O)NCCCN2CCC(c3ccccc3)(c3ccccc3)CC2)C1c1ccc([N+](=O)[O-])cc1` (stereo not shown) [Example 131, 5-(N-Ethyl)carboxamido-1,4-dihydro-2,6-dimethyl-4-(4-nitrophenyl)-3-{N-[3-(4,4-diphenylpiperidin-1-yl)propyl]}carboxamidopyridine], the melting point was in the range of 104 to 108 °C. This compound also gave a Ki in series [1] (setting [8]) of 1480 nM. In series [2] (setting [9]), this compound gave a Ki of 851 nM. For the same compound, in series [3] (setting [10]), the Ki is 4.57 nM. On L-type calcium channel (setting [11]), the Ki was 100000 nM.

In the case of `CCC1=C(C(=O)NCCCN2CCC(c3ccccc3)(c3ccccc3)CC2)C(c2ccc([N+](=O)[O-])cc2)C(C(=O)NC(C)C)=C(CC)N1` (stereo not shown) [Example 132], the melting point was 201 °C (dec.). For the same compound, the Ki in series [1] (setting [8]) is 776 nM. In series [2] (setting [9]), this compound had a Ki of 389 nM. The compound further showed a Ki in series [3] (setting [10]) of 57.5 nM. In addition, the Ki on L-type calcium channel (setting [11]) is 79400 nM.

Turning to `CNC(=O)C1=C(C)NC(C)=C(C(=O)NCCCN2CCC(C(=O)OC)(c3ccccc3)CC2)C1c1ccc([N+](=O)[O-])cc1` (stereo not shown) [Example 187, 1,4-Dihydro-2,6-dimethyl-3-{N-[3-(4-methoxycarbonyl-4-phenylpiperidin-1-yl)propyl]}carboxamido-5-(N-methyl) carboxamido-4-(4nitrophenyl)pyridine], the melting point fell in the range of 122 to 123 °C. Besides, on L-type calcium channel (PKi Ca, [3H]nitrendipine, rat cardiac muscle membranes, mean), the Ki was 513000 nM.

Take `CC1=C(C(N)=O)C(c2ccc([N+](=O)[O-])cc2)C(C(=O)NCCCN2CCC(c3ccccc3)CC2)=C(COCCN=[N+]=[N-])N1` (stereo not shown) [Example 216, 2-((Azidoethyl)oxy)methyl-5-carboxamido-1,4-dihydro-6-methyl-4-(4-nitro)phenyl-3-(N-(3-(4-phenylpiperidin-1-yl)propyl))carboxamidopyridine]: the Ki was 60.3 nM in series [1] (setting [12]), 7.08 nM in series [2] (setting [13]), 1.7 nM in series [3] (setting [14]) and 1000 nM on L-type calcium channel (setting [15]).

`CC1=C(C(N)=O)C(c2ccc([N+](=O)[O-])cc2)C(C(=O)NCCCN2CCC(c3ccccc3)(c3ccccc3)CC2)=C(COCCN)N1` (stereo not shown) [Example 217, 2-((2-Aminoethyl)oxy)methyl-5-carboxamido-1,4-dihydro-6-methyl-3-(N-(3-(4,4-diphenylpiperidin-1-yl)propyl))carboxamido-4-(4-nitro)phenylpyridine]: the Ki in series [1] (PKi alpha-1 1a) is 776 nM; in series [2] (setting [13]), 447 nM; in series [3] (setting [14]), 2.45 nM; at L-type calcium channel (PKi Ca), 8130 nM.

`CCC1=C(C(=O)O)C(c2ccc([N+](=O)[O-])cc2)C(C(=O)NCCCN2CCC(c3ccccc3)CC2)=C(COC)N1` (stereo not shown) [Example 223, 6-Ethyl-1,4-dihydro-2-methyloxymethyl-4-(4-nitro)phenyl-3-(N-(3-(4-phenylpiperidin-1-yl)propyl))carboxamidopyridine-5-carboxylic Acid]: the Ki in series [1] (setting [12]) was 891 nM; in series [2] (setting [13]), 174 nM; in series [3] (setting [14]), 34.7 nM; on L-type calcium channel (setting [15]), 275000 nM.

With `CCC1=C(C(=O)NC)C(c2ccc([N+](=O)[O-])cc2)C(C(=O)NCCCN2CCC(c3ccccc3)(c3ccccc3)CC2)=C(COCCN=[N+]=[N-])N1` (stereo not shown) [Example 224, 2-((2-Azidoethyl)oxy)methyl-6-ethyl-1,4-dihydro-5-N-methylcarboxamido-4-(4-nitro)phenyl-3-(N-(3-(4,4-diphenylpiperidin-1-yl)propyl))carboxamidopyridine], the Ki in series [1] (PKi alpha-1 1a, [3H]prazosin, cloned human receptor, LM(tk-) cell membranes, mean) is 661 nM; in series [2] (PKi alpha-1 1b, cloned human receptor, LM(tk-) cell membranes, mean), 263 nM; in series [3] (PKi alpha-1 1c, cloned human receptor, LM(tk-) cell membranes, mean), 6.92 nM; at L-type calcium channel (setting [15]), 15100 nM.

For orientation: melting point means the temperature, or range, at which the solid turns liquid.
